Assay results as given in patent publication US20210015793A1, “COMPOUNDS FOR TREATING CNS- AND NEURODEGENERATIVE DISEASES” (ETH ZURICH, priority 2018, published 2021).
“Also recorded” adds a separate entry of the source.

What was measured:
[1] = test system: Tg2576 AD mice; assay: Hippocampal neuronal cell bodies by direct binding assay with [125I]-labeled anti-NeuN antibody, Tg2576 mice subjected to CUMS; type: in vivo, mouse; conditions: 15-month-old Tg2576 mice, 3 months of CUMS with treatment, vs untreated stressed controls
Source text: (§1) For a genetic model of familial AD (FAD), Tg2576 mice (Taconic Biosciences, Rensselaer, N.Y., USA) were used with neuron-specific overexpression of human APPSwe, i.e the Swedish mutation of APP695 isolated from a Swedish family with FAD featuring the double mutation K670N/M671L (Hsiao et al., Science 274, 99-103 (1996)). As a genetic model of tauopathy, the Tg-TauP301L mice (Model 2508, Taconic Biosciences, Rensselaer, N.Y., USA) with neuron-specific expression of the most common FTDP-17 (frontotemporal dementia and parkinsonism linked to chromosome 17) mutation (Lewis et al., Nature Genetics 25, 402-405 (2000)) were used. […]
(§2) Neuronal cell loss and hyperphosphorylated PHF Tau were determined in hippocampi of 15 months-old Tg2576 mice, which were treated without or with Compound-1 and Compound-4 for three months during the neurodegeneration-enhancing CUMS (chronic unpredictable mild stress) protocol. Neuronal cell loss was determined with crude homogenates of dissected hippocampi by direct binding assay with the neuron-specific [125]-labeled anti-NeuN antibody (MAB377, clone A60, EMD Millipore, Merck KGaA, Darmstadt, Germany). Similarly, the neuronal cell loss-causing PHF tau hyperphosphorylation was quantified with [125]-labeled AT8 antibody. […]

[2] = test system: Tg2576 AD mice; assay: Hippocampal hyperphosphorylated PHF tau by direct binding assay with [125I]-labeled AT8 antibody, Tg2576 mice subjected to CUMS; type: in vivo, mouse; conditions: 15-month-old Tg2576 mice, 3 months of CUMS with treatment, vs untreated stressed controls
Source text: as §1, §2

[3] = test system: female B6 mice; assay: Aging-induced decrease in fertility in female B6 mice; type: in vivo, mouse; conditions: 8 mg/kg/d in drinking water from 3 to 21 months of age, vs untreated controls
Experimental: (A,B) Treatment of B6 mice with Compound-1 (A) and Compound-1F (B) at a daily dose of 8 mg/kg/d in drinking water was started at an age of 3 months and continued until the end of the observation period at 21 months. The age of the male breeder(s) was <10 months. The number of offspring per month is given (±s.d.; n=5; p=0.0167 for Compound-1, and p=0.0032 for Compound-1F compared to untreated controls; unpaired, two-tailed Student's t-test).

[4] = Serum concentration by HPLC in dogs after oral dosing; type: in vivo, dog; conditions: for steady-state serum concentrations of Compound-1 and Compound-1F compared: 28 days once daily oral dosing, 24 h after the last dose; for oral bioavailability: oral treatment; for dog dose roughly equivalent to 8 mg/kg/day in mice (by steady-state serum concentration): mice given compound in drinking water, dogs 28 days once daily oral dosing
Experimental: Dog serum concentrations of Compound-1, Compound-1F and Compound-4 were determined with serum isolated from the blood of German shepherd dogs (age: 8-9 months) taken at different time points (2 h, 4 h, 6 h, 8, 10 h, 24 h) after oral drug intake. The steady-state serum concentrations of Compound-1, Compound-1F and Compound-4 were determined in mice with blood isolated at the end of the study by cardiac puncture. Serum proteins were removed by acetonitrile precipitation, and compounds were extracted by chloroform before separation on an HPLC-C18 column (Poroshell 120 EC-C18, Agilent) with an HPLC system (Agilent 1100 Series) and detection at OD 280 nm, for Compound-1 and Compound-1F. Detection of Compound-4 was performed at OD 310 nm. The same extraction method was also used to determine Compound-1F in the serum of healthy human research participants. Dog hematology and biochemical parameters were determined by the Center of Applied Analytical and Veterinary Studies, Cairo, Egypt. ECG and blood pressure were measured by Dr. Mohamed Elsaed, Electrocardiography Unit, Faculty of Veterinary Medicine, Cairo University. The study was approved by the ethical committee of the Center of Applied and Veterinary Studies, Cairo, Egypt. Clinical laboratory parameters of human research participants were determined by the Rabaa El Adaweya Medical Central Hospital, Cairo, Egypt.

[5] = dogs, oral gavage, single dose of 60 mg

Row | SMILES | hippocampal neuronal loss (anti-NeuN antibody binding) [1] | hippocampal content of hyperphosphorylated PHF Tau (AT8 binding) [2] | female fertility (number of offspring per month) [3] | steady-state serum concentrations of Compound-1 and Compound-1F compared ([4]; dogs) | dose dependence of peak serum concentration ([4]; dogs, 28 days repeated once daily dosing, 20, 60, 200 mg/day) | time to peak serum concentration ([4]; dogs, day 28 of repeated once daily dosing, 20, 60 and 200 mg/day) [h] | peak serum concentration [4, 5] [µg/mL] | time to peak serum concentration [4, 5] [h] | time to peak serum concentration ([4]; dogs, oral gavage, single dose of 200 mg) [h] | oral bioavailability ([4]; dogs) | dog dose roughly equivalent to 8 mg/kg/day in mice (by steady-state serum concentration) [4] [mg/kg day] | pharmacokinetic profile compared to Compound-1 ([4]; dogs, oral)
1 | O=C(C1=C(O)C(c2ccccc2)N(c2ccc3c(c2)OCO3)C1=O)C1CC1 (stereo not drawn) [Compound-1, 1-(1,3-benzodioxol-5-yl)-4-(cyclopropane-carbonyl)-3-hydroxy-2-phenyl-2H-pyrrol-5-one] | retarded hippocampal neuronal loss; also recorded: significantly retarded the loss of hippocampal neurons | retarded; also recorded: significantly decreased hippocampal content of hyperphosphorylated PHF Tau | retarded aging-induced decrease in fertility | comparable | dose-dependent increase in the peak serum concentration | 4 | 2 | 4 | 6 | good oral bioavailability | ~0.7 | 
2 | O=C(C1=C(O)C(c2ccc(F)cc2)N(c2ccc3c(c2)OCO3)C1=O)C1CC1 (stereo not drawn) [Compound-1F, 1-(1,3-Benzodioxol-5-yl)-4-(cyclopropanecarbonyl)-2-(4-fluorophenyl)-3-hydroxy-2H-pyrrol-5-one] | retarded hippocampal neuronal loss | retarded | retarded aging-induced decrease in fertility | comparable |  |  |  |  |  | good oral bioavailability | ~0.7 | slower on-rate
